Experimental data reported in patent US20040014624A1, “Recylable cleaning compositions” (priority 2003, published 2004).
Where two headings read alike, the source gives them in different places.

How the values were obtained:
[1] = Surfactant Log P estimate by reversed phase HPLC
Procedure: Reversed phase HPLC was performed on all samples. Samples were filtered through Gelman 0.45 um PVDF filters and analyzed. Almost all separations were utilized the following conditions:
Column: Supelcosil LC-18 column, 15 cm×4.6 mm, 5 um particle size (Supelco, Bellefonte, Pa.).
Flow: 1 ml/min. Temperature: ambient Injection Volume: 50 ul Mobile Phase A: 70:30 methanol: water (v+v) with 10 mM ammonium acetate.
Mobile Phase B: 100% methanol.
The ELSD was operated at 40° C., with a nitrogen flow rate of 1.8 l/min. A Chromeleon Chromatography Data system (Dionex Corp. Sunnyvale, Calif.) was used to collect and process the HPLC data.
A reversed phase HPLC method was used to estimate surfactant Log P values. The HPLC capacity factor, k′, for each material was determined according to the equation: […]
The column void time was determined from the elution time of unretained salt. […] (FIG. 6).
The reversed phase HPLC separation used herein separates primarily based on the size of the hydrophobe. […] The peak maximum retention time was used to determine the Log P estimate for surfactants with either the narrow or the broad single peak profiles. […] (FIG. 7). […] In addition, the retention time of the individual hydrophobe peaks was used to calculate Log P values for these oligomers.

[2] = Membrane filtration permeability, unsoiled system; assay type: physicochemical
Description: (§1) A Membrex Benchmark GX (Fairfield, N.J.) lab-scale rotating membrane filtration unit was used for all permeability studies. Membrane cartridges were made of polyacrylonitrile with a 0.05 um pore size (Part #0567, Osmonics Corp., Minnetonka, Minn.).
(§2) One to two liters of the aqueous alkaline solution of the present invention in its diluted form, usually including 0.15% surfactant and 0.05% potassium carbonate, was placed in both the customer (or initial) and holding tanks (appropriately sized glass beakers). For experiments with soil, oil was added at a 1% level to both tanks. The tanks were heated with magnetic stirring on hotplates to either 140° F. or 100° F. The temperature was maintained throughout each experiment with RTD temperature probes interfaced to the hotplates. The rotation rate of the membrane filtration unit was 3000 RPM. Material from the holding tank was pumped into the membrane filtration unit at a flow of 600 ml/min. The outlet pressure was adjusted to achieve a 5 psi pressure drop across the membrane, resulting in permeate flows of approximately 100-300 ml/min depending on the soil and the operating temperature. The transfer line from the customer tank to the holding tank was adjusted to equal the permeate flow rate in order to maintain a constant level in both customer and holding tank. One cycle or turnover is defined to be the time at which the cumulative volume of permeate equals the initial volume of the customer tank. Permeate samples were collected at 1, 5 and/or 10 cycles.
(§3) A 0.05 um PAN membrane was used in the filtration.
(§4) Surfactant levels in permeate samples were determined by TOC (unsoiled studies only) and by HPLC/ELSD.
(§5) A sample of the initial cleaning solution was collected before addition of oil (if added) and before starting membrane operation. This initial cleaning soultion sample is defined to be the 100% permeable concentration. Serial dilutions of the 100% permeable sample were made to obtain calibration samples for the HPLC analysis. Point-to-point calibration curves were used for HPLC quantitation due to the non-linear nature of the ELSD response. For TOC analysis the initial cleaning solution sample was used for the single point calibration. For surfactants with multiple surfactant oligomers, individual oligomer permeability and overall surfactant permeability were determined. The overall surfactant permeability was calculated from the average of the oligomer results, except for Surfonic® L108/85-5 where the result for major C8 hydrophobe was used.

[3] = Membrane filtration permeability, Pennzoil 80W90 soiled system; assay type: physicochemical; details: 1% oil, 140° F., HPLC
Description: as §1, §2, §3, §4, §5
(§6) Example 3 was performed in the same way as Example 2 but in the presence of soil. The method described in Example 2 was followed in Example 3. The permeability performance of surfactants in soiled systems is of interest given the desire to separate the aqueous cleaning materials from soil. Two oils were evaluated in this study: Cosmoline® 1102 and Pennzoil® 80W90 oil.

[4] = 1% aqueous solutions, Table H; cited from earlier work
[5] = Membrane filtration permeability, Cosmoline 1102 soiled system; assay type: physicochemical; details: 1% oil, 140° F., HPLC
Description: as §1, §2, §3, §4, §5, §6
The permeability of four surfactants was evaluated at 100° F. in the presence of 1% Cosmoline® 1102 oil. […] The results are listed in Table N and are plotted in FIG. 26 with a comparison to the 140° F. results.

[6] = known values used for calibration; cited from earlier work
[7] = unsoiled, Cycle 5, 140° F., HPLC (Table M)
[8] = single peak or individual hydrophobe peak, alkyl benzene standards
[9] = unsoiled, Cycle 1, 0.05 um PAN membrane
[10] = unsoiled, Cycle 5, 0.05 um PAN membrane
[11] = unsoiled, Cycle 10, 0.05 um PAN membrane

## CCCCCCCCCCCC[N+](C)(C)[O-] [Barlox ® 12, dodecyl dimethyl amine oxide]
[1]
  chromatographic logP: 4.5
[2]; [7]
  % Permeability: 80%
[3]
  Permeability, Pennzoil80W90-Cycle 5: 63%
[4]
  Cloud Point (° C.): None

## CCCCCCCC[N+](C)(C)[O-] [Mackamine ® C8, linear octyl dimethyl amine oxide]
[1]; [8]
  LogP, HPLC estimate: 2.5
[2]; [9]
  % Permeability (HPLC): 104%
  % Permeability (TOC): 101%
[2]; [10]
  % Permeability (HPLC): 105%
  % Permeability (TOC): 108%
[2]; [7]
  % Permeability: 105%
[2]; [11]
  % Permeability (HPLC): 102%
  % Permeability (TOC): 117%
[5]
  Permeability, Cosmoline 1102-Cycle 1: 94%
  Permeability, Cosmoline 1102-Cycle 5: 95%
  Permeability, Cosmoline 1102-Cycle 10: 99%
[3]
  Permeability, Pennzoil80W90-Cycle 5: 95%
[4]
  Cloud Point (° C.): None

## CCCCCCCCCC[N+](C)(C)[O-] [Mackamine ® C10, linear decyl dimethyl amine oxide]
[1]; [8]
  LogP, HPLC estimate: 3.4
[5]
  Permeability, Cosmoline 1102-Cycle 5: 53%
[4]
  Cloud Point (° C.): None

## CCc1ccccc1 [ethyl benzene]
[6]
  Log P of alkylbenzene retention time standards: 3.13

## CCCCCCc1ccccc1 [hexyl benzene]
[6]
  Log P of alkylbenzene retention time standards: 5.24

## CCCCCCCCc1ccccc1 [octyl benzene]
[6]
  Log P of alkylbenzene retention time standards: 6.30

## C8 mono-glucoside [Glucopon ® 425/C8]
[1]
  LogP, HPLC estimate: 2.5
[2]; not told
  % Permeability: 104%
[5]
  Permeability, Cosmoline 1102-Cycle 5: 74%
[3]
  Permeability, Pennzoil80W90-Cycle 5: 97%

## C10 mono-glucoside [Glucopon ® 425/C10]
[1]
  LogP, HPLC estimate: 3.2
[2]; not told
  % Permeability: 87%
[5]
  Permeability, Cosmoline 1102-Cycle 5: 22%
[3]
  Permeability, Pennzoil80W90-Cycle 5: 77%

## C12 mono-glucoside [Glucopon ® 425/C12]
[1]
  LogP, HPLC estimate: 4.3
[2]; not told
  % Permeability: 44%
[5]
  Permeability, Cosmoline 1102-Cycle 5: <20%
[3]
  Permeability, Pennzoil80W90-Cycle 5: 49%

## C14 mono-glucoside [Glucopon ® 425/C14]
[1]
  LogP, HPLC estimate: 5.2
[2]; not told
  % Permeability: 35%
[5]
  Permeability, Cosmoline 1102-Cycle 5: <20%
[3]
  Permeability, Pennzoil80W90-Cycle 5: 39%

## cocamidopropyl betaine ammonium salt [Foamtaine ® CAB-A]
[1]
  LogP, HPLC estimate: 3.6
[5]
  Permeability, Cosmoline 1102-Cycle 5: 9%
[4]
  Cloud Point (° C.): None
